Results: publication PMC7481290, “Halogenation as a tool to tune antimicrobial activity of peptoids” (Scientific Reports, 2020)
Values after ≈ are worked out from the molar mass of the structure shown. Non-standard residues stand in square brackets, D forms with d. Residues, ends and D or L forms follow the SMILES beside them. Gly(Nα-4-Cl-benzyl) = O=C(O)CNCc1ccc(Cl)cc1; N(4-F-Bzl)Gly = O=C(O)CNCc1ccc(F)cc1; NBzl(4-I)Gly = O=C(O)CNCc1ccc(I)cc1; Nphe = O=C(O)CNCc1ccccc1; Nlys = NCCCCNCC(=O)O

Experiments:
[1] = system: Methicillin-resistant S. aureus USA 300; type: cell-based, Staphylococcus aureus; settings: USA 300, 18 h
Method: (§1) Bacterial growth inhibition was determined by using broth microdilution according to the Clinical Laboratory Standards Institute[43]. The antibacterial activity of peptoids was tested against S. aureus ATCC 25923, ATCC29213, and methicillin resistant S. aureus USA 300, methicillin resistant S. epidermidis ATCC 51625, a biofilm producing methicillin resistant S. epidermidis ET-024[44], P. aeruginosa Pa01 (H103), and E. coli ATCC 25922. Bacteria, grown on agar plates for 18 h at 37 °C, were diluted to ∼1 × 10^8 CFU/mL in Mueller‐Hinton Broth II (MHB II). Twofold serial dilutions of peptoids in MHB II were inoculated with bacteria to achieve a final concentration of 5 × 10^5 CFU/mL in polypropylene 96 U‐well microtiter plates (Corning 3,897; ThermoFisher Scientific, Roskilde), followed by incubation at 37 °C in ambient air for 18 h. The MIC values were determined as the lowest concentration showing no visible bacterial growth. Experiments were performed twice (in technical triplicates) on 2 different days.

S. aureus ATCC 25923 = type: cell-based, Staphylococcus aureus; settings: for Minimal inhibitory concentration SA^a: ATCC 25923, 18 h
Method: as §1

S. aureus ATCC 29213 = type: cell-based, Staphylococcus aureus; settings: ATCC 29213, 18 h
Method: as §1

[2] = system: Methicillin-resistant S. epidermidis ATCC 51625; type: cell-based, Staphylococcus epidermidis; settings: for Minimal inhibitory concentration MRSE^e: ATCC 51625, 18 h
Method: as §1

[3] = system: Methicillin-resistant S. epidermidis ET-024; type: cell-based, Staphylococcus epidermidis; settings: for Minimal inhibitory concentration MRSE^d: Methicillin-resistant ET-024, 18 h
Method: as §1

E. coli ATCC 25922 = type: cell-based, Escherichia coli; settings: ATCC 25922, 18 h
Method: as §1

[4] = system: P. aeruginosa PA01 (H103); type: cell-based, Pseudomonas aeruginosa; settings: H103, 18 h
Method: as §1

[5] = Critical aggregation concentration from SAXS fit analysis; type: physicochemical
Method: SAXS experiments of the 10-mer peptoids were performed at the automated BM29 bioSAXS beamline at the European Synchrotron Radiation Facility (ESRF) in Grenoble, France[45]. The data was obtained using an energy of 12.5 keV and a detector distance of 2.87 m, covering a q range ( q=4πsin(θ/2)/λ ), where θ is the scattering angle and λ is the X-ray wavelength) of about 0.0047 to 0.5 Å^−1. The data set was calibrated to an absolute intensity scale using water as a primary standard. 40 µL samples were run through a capillary using the flow mode of the automated sample changer. SAXS data was collected in ten successive frames of 0.5 s each to monitor radiation damage and the data reduction was done using the standard tool at BM29[47].
The SAXS experiments on the fully iodinated 6-, 8-, and 12-mers to determine the CAC of the compounds were performed using a Bruker NANOSTAR equipped with a microfocus X-ray source (IμS Cu, Incoatec, Germany) and a VÅNTEC-2000 detector. Raw scattering data was calibrated to absolute intensity scale using water as a primary standard and radially averaged in order to obtain the 1D scattered intensity profile as a function of the scattering vector, with a wavelength of 1.54 Å.
The modelling fit analysis of the scattering data is explained in detail in the supplementary information.

## NCCCCNCC(=O)N(CC(=O)N(CCCCN)CC(=O)N(CC(=O)N(CCCCN)CC(=O)N(CC(N)=O)Cc1ccc(I)cc1)Cc1ccc(I)cc1)Cc1ccc(I)cc1 [Compound 5] (H-[Nlys][NBzl(4-I)Gly][Nlys][NBzl(4-I)Gly][Nlys][NBzl(4-I)Gly]-NH2)
[1]
  Minimal inhibitory concentration MRSA^c: 4 µg/mL (≈ 3.28 µM)
S. aureus ATCC 25923
  Minimal inhibitory concentration SA^a: 8 µg/mL (≈ 6.55 µM)
S. aureus ATCC 25923; versus non-halogenated control of same length
  fold increase of activity against S. aureus: > 64 fold
S. aureus ATCC 29213
  Minimal inhibitory concentration SA^b: 4 µg/mL (≈ 3.28 µM)
[2]; text b15, strain not named, values match ATCC 51625
  MIC against MRSE: 2 µg/mL (≈ 1.64 µM)
[2]; versus non-halogenated control 1, values match ATCC 51625
  fold increase of activity against MRSE: 256 fold
[3]
  Minimal inhibitory concentration MRSE^d: 4 µg/mL (≈ 3.28 µM)
E. coli ATCC 25922
  Minimal inhibitory concentration EC^f: 64 µg/mL (≈ 52.4 µM)
[4]
  Minimal inhibitory concentration PA^g: > 512 µg/mL
[5]
  critical aggregation concentration (CAC): 2.8 mg/mL

## NCCCCNCC(=O)N(CC(=O)N(CCCCN)CC(=O)N(CC(=O)N(CCCCN)CC(=O)N(CC(=O)N(CCCCN)CC(=O)N(CC(N)=O)Cc1ccc(I)cc1)Cc1ccc(I)cc1)Cc1ccc(I)cc1)Cc1ccc(I)cc1 [Compound 14] (H-[Nlys][NBzl(4-I)Gly][Nlys][NBzl(4-I)Gly][Nlys][NBzl(4-I)Gly][Nlys][NBzl(4-I)Gly]-NH2)
[1]
  Minimal inhibitory concentration MRSA^c: 4 µg/mL (≈ 2.47 µM)
S. aureus ATCC 25923
  Minimal inhibitory concentration SA^a: 8 µg/mL (≈ 4.93 µM)
S. aureus ATCC 29213
  Minimal inhibitory concentration SA^b: 16 µg/mL (≈ 9.86 µM)
[2]
  Minimal inhibitory concentration MRSE^e: 4 µg/mL (≈ 2.47 µM)
[3]
  Minimal inhibitory concentration MRSE^d: 2 µg/mL (≈ 1.23 µM)
[3]; versus non-halogenated control of same length, values match ET-024
  fold increase of activity against MRSE: 128 fold
E. coli ATCC 25922
  Minimal inhibitory concentration EC^f: 64 µg/mL (≈ 39.5 µM)
[4]
  Minimal inhibitory concentration PA^g: > 512 µg/mL
[5]
  critical aggregation concentration (CAC): 1.4 mg/mL

## NCCCCNCC(=O)N(CC(=O)N(CCCCN)CC(=O)N(CC(=O)N(CCCCN)CC(=O)N(CC(=O)N(CCCCN)CC(=O)N(CC(=O)N(CCCCN)CC(=O)N(CC(N)=O)Cc1ccc(F)cc1)Cc1ccc(F)cc1)Cc1ccc(F)cc1)Cc1ccc(F)cc1)Cc1ccc(F)cc1 [Compound 20] (H-[Nlys][N(4-F-Bzl)Gly][Nlys][N(4-F-Bzl)Gly][Nlys][N(4-F-Bzl)Gly][Nlys][N(4-F-Bzl)Gly][Nlys][N(4-F-Bzl)Gly]-NH2)
[1]
  Minimal inhibitory concentration MRSA^c: 32 µg/mL (≈ 21.6 µM)
S. aureus ATCC 25923
  Minimal inhibitory concentration SA^a: 64 µg/mL (≈ 43.1 µM)
S. aureus ATCC 29213
  Minimal inhibitory concentration SA^b: 64 µg/mL (≈ 43.1 µM)
[2]
  Minimal inhibitory concentration MRSE^e: 8 µg/mL (≈ 5.39 µM)
[3]
  Minimal inhibitory concentration MRSE^d: 4 µg/mL (≈ 2.7 µM)
E. coli ATCC 25922
  Minimal inhibitory concentration EC^f: 128 µg/mL (≈ 86.3 µM)
[4]
  Minimal inhibitory concentration PA^g: 256 µg/mL (≈ 173 µM)
[5]
  critical aggregation concentration (CAC): > 5 mg/mL

## NCCCCNCC(=O)N(CC(=O)N(CCCCN)CC(=O)N(CC(=O)N(CCCCN)CC(=O)N(CC(=O)N(CCCCN)CC(=O)N(CC(=O)N(CCCCN)CC(=O)N(CC(N)=O)Cc1ccc(Cl)cc1)Cc1ccc(Cl)cc1)Cc1ccc(Cl)cc1)Cc1ccc(Cl)cc1)Cc1ccc(Cl)cc1 [Compound 21] (H-[Nlys][Gly(Nα-4-Cl-benzyl)][Nlys][Gly(Nα-4-Cl-benzyl)][Nlys][Gly(Nα-4-Cl-benzyl)][Nlys][Gly(Nα-4-Cl-benzyl)][Nlys][Gly(Nα-4-Cl-benzyl)]-NH2)
[1]
  Minimal inhibitory concentration MRSA^c: 2 µg/mL (≈ 1.28 µM)
S. aureus ATCC 25923
  Minimal inhibitory concentration SA^a: 2 µg/mL (≈ 1.28 µM)
S. aureus ATCC 29213
  Minimal inhibitory concentration SA^b: 2 µg/mL (≈ 1.28 µM)
[2]
  Minimal inhibitory concentration MRSE^e: 2 µg/mL (≈ 1.28 µM)
[3]
  Minimal inhibitory concentration MRSE^d: 1 µg/mL (≈ 0.639 µM)
E. coli ATCC 25922
  Minimal inhibitory concentration EC^f: 64 µg/mL (≈ 40.9 µM)
[4]
  Minimal inhibitory concentration PA^g: > 512 µg/mL
[5]
  critical aggregation concentration (CAC): > 5 mg/mL

## NCCCCNCC(=O)N(CC(=O)N(CCCCN)CC(=O)N(CC(=O)N(CCCCN)CC(=O)N(CC(=O)N(CCCCN)CC(=O)N(CC(=O)N(CCCCN)CC(=O)N(CC(N)=O)Cc1ccc(F)cc1)Cc1ccccc1)Cc1ccc(F)cc1)Cc1ccccc1)Cc1ccc(F)cc1 [Compound 24] (H-[Nlys][N(4-F-Bzl)Gly][Nlys][Nphe][Nlys][N(4-F-Bzl)Gly][Nlys][Nphe][Nlys][N(4-F-Bzl)Gly]-NH2)
[1]
  Minimal inhibitory concentration MRSA^c: 256 µg/mL (≈ 177 µM)
S. aureus ATCC 25923
  Minimal inhibitory concentration SA^a: 512 µg/mL (≈ 354 µM)
S. aureus ATCC 29213
  Minimal inhibitory concentration SA^b: 512 µg/mL (≈ 354 µM)
[2]
  Minimal inhibitory concentration MRSE^e: 8 µg/mL (≈ 5.53 µM)
[3]
  Minimal inhibitory concentration MRSE^d: 4 µg/mL (≈ 2.76 µM)
E. coli ATCC 25922
  Minimal inhibitory concentration EC^f: 256 µg/mL (≈ 177 µM)
[4]
  Minimal inhibitory concentration PA^g: 512 µg/mL (≈ 354 µM)
[5]
  critical aggregation concentration (CAC): > 5 mg/mL

## NCCCCNCC(=O)N(CC(=O)N(CCCCN)CC(=O)N(CC(=O)N(CCCCN)CC(=O)N(CC(=O)N(CCCCN)CC(=O)N(CC(=O)N(CCCCN)CC(=O)N(CC(N)=O)Cc1ccc(Cl)cc1)Cc1ccccc1)Cc1ccc(Cl)cc1)Cc1ccccc1)Cc1ccc(Cl)cc1 [Compound 25] (H-[Nlys][Gly(Nα-4-Cl-benzyl)][Nlys][Nphe][Nlys][Gly(Nα-4-Cl-benzyl)][Nlys][Nphe][Nlys][Gly(Nα-4-Cl-benzyl)]-NH2)
[1]
  Minimal inhibitory concentration MRSA^c: 16 µg/mL (≈ 10.7 µM)
S. aureus ATCC 25923
  Minimal inhibitory concentration SA^a: 8 µg/mL (≈ 5.34 µM)
S. aureus ATCC 29213
  Minimal inhibitory concentration SA^b: 8 µg/mL (≈ 5.34 µM)
[2]
  Minimal inhibitory concentration MRSE^e: 1 µg/mL (≈ 0.668 µM)
[3]
  Minimal inhibitory concentration MRSE^d: 2 µg/mL (≈ 1.34 µM)
E. coli ATCC 25922
  Minimal inhibitory concentration EC^f: 256 µg/mL (≈ 171 µM)
[4]
  Minimal inhibitory concentration PA^g: 512 µg/mL (≈ 342 µM)
[5]
  critical aggregation concentration (CAC): > 5 mg/mL

## NCCCCNCC(=O)N(CC(=O)N(CCCCN)CC(=O)N(CC(=O)N(CCCCN)CC(=O)N(CC(=O)N(CCCCN)CC(=O)N(CC(=O)N(CCCCN)CC(=O)N(CC(N)=O)Cc1ccc(I)cc1)Cc1ccccc1)Cc1ccc(I)cc1)Cc1ccccc1)Cc1ccc(I)cc1 [Compound 27] (H-[Nlys][NBzl(4-I)Gly][Nlys][Nphe][Nlys][NBzl(4-I)Gly][Nlys][Nphe][Nlys][NBzl(4-I)Gly]-NH2)
[1]
  Minimal inhibitory concentration MRSA^c: 4 µg/mL (≈ 2.26 µM)
S. aureus ATCC 25923
  Minimal inhibitory concentration SA^a: 4 µg/mL (≈ 2.26 µM)
S. aureus ATCC 29213
  Minimal inhibitory concentration SA^b: 4 µg/mL (≈ 2.26 µM)
[2]
  Minimal inhibitory concentration MRSE^e: 1 µg/mL (≈ 0.565 µM)
[3]
  Minimal inhibitory concentration MRSE^d: 2 µg/mL (≈ 1.13 µM)
E. coli ATCC 25922
  Minimal inhibitory concentration EC^f: 128 µg/mL (≈ 72.3 µM)
[4]
  Minimal inhibitory concentration PA^g: > 512 µg/mL
[5]
  critical aggregation concentration (CAC): > 5 mg/mL

## NCCCCNCC(=O)N(CC(=O)N(CCCCN)CC(=O)N(CC(=O)N(CCCCN)CC(=O)N(CC(=O)N(CCCCN)CC(=O)N(CC(=O)N(CCCCN)CC(=O)N(CC(=O)N(CCCCN)CC(=O)N(CC(N)=O)Cc1ccc(I)cc1)Cc1ccccc1)Cc1ccc(I)cc1)Cc1ccccc1)Cc1ccc(I)cc1)Cc1ccccc1 [Compound 36] (H-[Nlys][Nphe][Nlys][NBzl(4-I)Gly][Nlys][Nphe][Nlys][NBzl(4-I)Gly][Nlys][Nphe][Nlys][NBzl(4-I)Gly]-NH2)
[1]
  Minimal inhibitory concentration MRSA^c: 4 µg/mL (≈ 1.95 µM)
S. aureus ATCC 25923
  Minimal inhibitory concentration SA^a: 8 µg/mL (≈ 3.91 µM)
S. aureus ATCC 29213
  Minimal inhibitory concentration SA^b: 16 µg/mL (≈ 7.82 µM)
[2]
  Minimal inhibitory concentration MRSE^e: 1 µg/mL (≈ 0.489 µM)
[3]
  Minimal inhibitory concentration MRSE^d: 4 µg/mL (≈ 1.95 µM)
E. coli ATCC 25922
  Minimal inhibitory concentration EC^f: 256 µg/mL (≈ 125 µM)
[4]
  Minimal inhibitory concentration PA^g: > 512 µg/mL
